From patent US7429679B2, “Sulphonic acid salt of sibutramine” (CJ Corporation, priority 2005, dated 2008)
In brackets after ≈: the same amount, converted by molar mass. Entries after “also recorded” stand apart in the source; their conditions may differ. Like-named read-outs stand apart in the source and are kept apart here.

Experiments:
Assay type in all cases: physicochemical
[1] = Evaluation of light stability: exposure to fluorescence at 25° C., ICH light stability test chamber, content by HPLC; parameters: content (HPLC) in light stability test: reference not given here
Protocol: A light stability test was performed as follows. The sulphonic acid salts of sibutramine, prepared in Examples 1 to 5, and sibutramine hydrochloride monohydrate were exposed to fluorescence at 25° C. using a light stability test chamber suitable for the ICH guideline, for storage periods of 1, 2 and 4 weeks.

[2] = Evaluation of solubility in distilled water and aqueous solutions having various pH values
[3] = Evaluation of stability: stringent 60° C. heat treatment, content by HPLC; parameters: content (HPLC) upon 60° C. heat treatment: reference not given here
Protocol: The sulphonic acid salts of sibutramine, prepared in Examples 1 to 5, and sibutramine hydrochloride monohydrate were exposed to a stringent 60° C. heat treatment.
HPLC was performed under the following conditions.
Wavelength of UV detection: 225 nm
Column: octadecyl silica gel, C18 (4.6×150 mm, 5 μm)
Mobile phase: an aqueous solution of ammonium phosphate monohydride (0.05 M) (adjusted to pH 6 with phosphoric acid): acetonitrile=35:65

[4] = Evaluation of hygroscopicity: water content (K.F.) after exposure to humid conditions at 25° C.; settings: for change in water content under humid conditions (in words): relative humidities of 10%, 75% and 90%, up to one week or longer
Protocol: The sulphonic acid salts of sibutramine, prepared in Examples 1 to 5, and sibutramine hydrochloride monohydrate were exposed to humid conditions (10%, 75% and 90% RH) at 25° C. for a period of three days or one week. Then, the water content (K.F. water %) of the samples was measured.

[5] = distilled water (DW) and buffer solutions at various pH values
[6] = 10% relative humidity, 25° C., 1 week
[7] = 10% relative humidity, 25° C., 3 days
[8] = 75% relative humidity, 25° C., 1 week
[9] = 75% relative humidity, 25° C., 3 days
[10] = 90% relative humidity, 25° C., 1 week
[11] = 90% relative humidity, 25° C., 3 days

CC(C)CC(N(C)C)C1(c2ccc(Cl)cc2)CCC1 (centres unmarked) [Besylate, sibutramine besylate]
content (HPLC) in light stability test ([1]; Initial): 1.000 | content (HPLC) in light stability test ([1]; fluorescence, 25° C., 1 wk): 1.000 | content (HPLC) in light stability test ([1]; fluorescence, 25° C., 2 wks): 0.999 | content (HPLC) in light stability test ([1]; fluorescence, 25° C., 4 wks): 0.999 | solubility ([2]; DW (distilled water)): 19.18 mg/mL | solubility ([2]; aqueous buffer, distilled water (DW) and buffer solutions at various pH values, read-out: solubility against the solubility sufficient for preparing pharmaceutical formulations such as capsules): > 3 mg/mL | solubility compared to sibutramine hydrochloride monohydrate (in words) [2, 5]: slightly lower solubility than sibutramine hydrochloride monohydrate | solubility compared to sibutramine hydrochloride monohydrate (in words) ([2]; distilled water (DW) and buffer solutions at various pH values, listed as besylate): slightly low solubility compared to sibutramine hydrochloride monohydrate | solubility ([2]; pH 1.2): 15.18 mg/mL | solubility ([2]; pH 4.0): 8.51 mg/mL | solubility ([2]; pH 5.3): 5.72 mg/mL | solubility ([2]; pH 6.8): 21.86 mg/mL | solubility ([2]; pH 7.4): 7.01 mg/mL | content (HPLC) upon 60° C. heat treatment ([3]; 60° C., 1 wk): 1.000 | content (HPLC) upon 60° C. heat treatment ([3]; 60° C., 2 wks): 0.999 | content (HPLC) upon 60° C. heat treatment ([3]; 60° C., 4 wks): 1.000 | content (HPLC) upon 60° C. heat treatment ([3]; Initial): 1.000 | water content (K.F. water %) ([4]; 10% relative humidity, 25° C., 1 week, listed as Bensylate): 0.02% | water content (K.F. water %) ([4]; 10% relative humidity, 25° C., 3 days, listed as Bensylate): 0.02% | water content (K.F. water %) ([4]; 75% relative humidity, 25° C., 1 week, listed as Bensylate): 0.05% | water content (K.F. water %) ([4]; 75% relative humidity, 25° C., 3 days, listed as Bensylate): 0.02% | water content (K.F. water %) ([4]; 90% relative humidity, 25° C., 1 week, listed as Bensylate): 0.05% | water content (K.F. water %) ([4]; 90% relative humidity, 25° C., 3 days, listed as Bensylate): 0.05% | water content (K.F. water %) ([4]; Initial, listed as Bensylate): 0.02% | change in water content under humid conditions (in words) [4]: almost no change in water content

CC(C)CC(N(C)C)C1(c2ccc(Cl)cc2)CCC1.CC1(C)C2CCC1(CS(=O)(=O)O)C(=O)C2 (centres unmarked) [Camsylate, sibutramine camsylate]
content (HPLC) in light stability test ([1]; Initial): 1.000 | content (HPLC) in light stability test ([1]; fluorescence, 25° C., 1 wk): 0.999 | content (HPLC) in light stability test ([1]; fluorescence, 25° C., 2 wks): 1.000 | content (HPLC) in light stability test ([1]; fluorescence, 25° C., 4 wks): 0.999 | solubility ([2]; DW (distilled water)): 23.67 mg/mL | solubility ([2]; pH 1.2): 16.18 mg/mL | solubility ([2]; pH 4.0): 16.75 mg/mL | solubility ([2]; pH 5.3): 7.45 mg/mL | solubility ([2]; pH 6.8): 29.83 mg/mL | solubility ([2]; pH 7.4): 13.97 mg/mL | content (HPLC) upon 60° C. heat treatment ([3]; 60° C., 1 wk): 1.000 | content (HPLC) upon 60° C. heat treatment ([3]; 60° C., 2 wks): 0.999 | content (HPLC) upon 60° C. heat treatment ([3]; 60° C., 4 wks): 0.999 | content (HPLC) upon 60° C. heat treatment ([3]; Initial): 1.000 | water content (K.F. water %) [4, 6]: 0.08% | water content (K.F. water %) [4, 7]: 0.09% | water content (K.F. water %) [4, 8]: 0.06% | water content (K.F. water %) [4, 9]: 0.06% | water content (K.F. water %) [4, 10]: 0.12% | water content (K.F. water %) [4, 11]: 0.08% | water content (K.F. water %) ([4]; Initial): 0.09% | change in water content under humid conditions (in words) [4]: almost no change in water content

CC(C)CC(N(C)C)C1(c2ccc(Cl)cc2)CCC1 (centres unmarked) [Edisylate, sibutramine edisylate]
content (HPLC) in light stability test ([1]; Initial): 1.000 | content (HPLC) in light stability test ([1]; fluorescence, 25° C., 1 wk): 1.000 | content (HPLC) in light stability test ([1]; fluorescence, 25° C., 2 wks): 0.999 | content (HPLC) in light stability test ([1]; fluorescence, 25° C., 4 wks): 1.000 | solubility ([2]; DW (distilled water)): 25.98 mg/mL (≈ 92.8 mM) | solubility compared to sibutramine hydrochloride monohydrate (in words) [2, 5]: slightly low solubility compared to sibutramine hydrochloride monohydrate; also recorded: slightly lower solubility than sibutramine hydrochloride monohydrate | solubility ([2]; pH 1.2): 10.57 mg/mL (≈ 37.8 mM) | solubility ([2]; pH 4.0): 9.78 mg/mL (≈ 34.9 mM) | solubility ([2]; pH 5.3): 5.68 mg/mL (≈ 20.3 mM) | solubility ([2]; pH 6.8): 19.44 mg/mL (≈ 69.5 mM) | solubility ([2]; pH 7.4): 8.04 mg/mL (≈ 28.7 mM) | content (HPLC) upon 60° C. heat treatment ([3]; 60° C., 1 wk): 0.999 | content (HPLC) upon 60° C. heat treatment ([3]; 60° C., 2 wks): 1.000 | content (HPLC) upon 60° C. heat treatment ([3]; 60° C., 4 wks): 0.999 | content (HPLC) upon 60° C. heat treatment ([3]; Initial): 1.000 | water content (K.F. water %) [4, 6]: 0.05% | water content (K.F. water %) [4, 7]: 0.06% | water content (K.F. water %) [4, 8]: 0.05% | water content (K.F. water %) [4, 9]: 0.04% | water content (K.F. water %) [4, 10]: 0.05% | water content (K.F. water %) [4, 11]: 0.04% | water content (K.F. water %) ([4]; Initial): 0.05% | change in water content under humid conditions (in words) [4]: almost no change in water content

CC(C)CC(N(C)C)C1(c2ccc(Cl)cc2)CCC1 (centres unmarked) [Esylate hemihydrate, sibutramine esylate hemihydrate]
content (HPLC) in light stability test ([1]; fluorescence, 25° C., 1 wk, hemihydrate): 0.999 | content (HPLC) in light stability test ([1]; fluorescence, 25° C., 2 wks, hemihydrate): 1.000 | content (HPLC) in light stability test ([1]; fluorescence, 25° C., 4 wks, hemihydrate): 0.999 | solubility ([2]; DW (distilled water), hemihydrate): 84.10 mg/mL | solubility compared to sibutramine hydrochloride monohydrate (in words) ([2]; distilled water (DW) and buffer solutions at various pH values, hemihydrate): excellent solubility compared to sibutramine hydrochloride monohydrate | solubility relative to sibutramine hydrochloride ([2]; distilled water and aqueous solutions of pH 1.2, pH 4.0, pH 5.3, pH 6.8 and pH 7.4): two times-higher than the solubility of sibutramine hydrochloride | solubility ([2]; pH 1.2, hemihydrate): 70.65 mg/mL | solubility ([2]; pH 4.0, hemihydrate): 26.42 mg/mL | solubility ([2]; pH 5.3, hemihydrate): 19.53 mg/mL | solubility ([2]; pH 6.8, hemihydrate): 69.42 mg/mL | solubility ([2]; pH 7.4, hemihydrate): 27.61 mg/mL | content (HPLC) upon 60° C. heat treatment ([3]; 60° C., 1 wk, hemihydrate): 1.000 | content (HPLC) upon 60° C. heat treatment ([3]; 60° C., 2 wks, hemihydrate): 0.999 | content (HPLC) upon 60° C. heat treatment ([3]; 60° C., 4 wks, hemihydrate): 0.999 | water content (K.F. water %) ([4]; 10% relative humidity, 25° C., 1 week, hemihydrate): 2.37% | water content (K.F. water %) ([4]; 10% relative humidity, 25° C., 3 days, hemihydrate): 2.35% | water content (K.F. water %) ([4]; 75% relative humidity, 25° C., 1 week, hemihydrate): 2.35% | water content (K.F. water %) ([4]; 75% relative humidity, 25° C., 3 days, hemihydrate): 2.29% | water content (K.F. water %) ([4]; 90% relative humidity, 25° C., 1 week, hemihydrate): 2.40% | water content (K.F. water %) ([4]; 90% relative humidity, 25° C., 3 days, hemihydrate): 2.44% | water content (K.F. water %) ([4]; Initial, hemihydrate): 2.37% | change in water content under humid conditions (in words) [4]: almost no change in water content
